{"source": "patent US20070149570A1", "about": "“Piperidine derivative and use thereof” (priority 2005, published 2007)", "key": {"substance P receptors": {"target": "T1, substance P receptors (Homo sapiens, UniProt P25103)", "T1 construct": "The receptor was prepared from human lymphoblast cells (IM-9); endogenous in cells; host or cells: IM-9 human lymphoblast cells (membrane preparation)", "T1 sequence (P25103 whole entry)": "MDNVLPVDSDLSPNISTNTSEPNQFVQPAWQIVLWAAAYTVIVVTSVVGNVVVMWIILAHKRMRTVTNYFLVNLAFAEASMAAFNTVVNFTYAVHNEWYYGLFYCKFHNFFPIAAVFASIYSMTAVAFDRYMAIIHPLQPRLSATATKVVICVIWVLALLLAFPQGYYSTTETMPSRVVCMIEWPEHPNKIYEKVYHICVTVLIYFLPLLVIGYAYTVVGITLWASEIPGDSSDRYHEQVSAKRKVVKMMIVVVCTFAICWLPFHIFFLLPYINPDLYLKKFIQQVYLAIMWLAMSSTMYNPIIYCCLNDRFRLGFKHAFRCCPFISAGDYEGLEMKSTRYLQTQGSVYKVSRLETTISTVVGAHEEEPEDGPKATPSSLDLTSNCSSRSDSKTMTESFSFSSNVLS", "assay": "Radioligand receptor binding inhibitory activity using receptor from human lymphoblast cells (IM-9), 125I-BHSP", "settings": "radioligand 125I-BHSP, 25° C., 30 minutes, read-out: IC50 (concentration necessary to cause 50% inhibition)", "description": "Radioligand receptor binding inhibitory activity (Binding inhibitory activity using receptor from human lymphoblast cells (IM-9))\nThe method of M. A. Cascieri et al., [Molecular Pharmacology, vol. 42, p. […] The receptor was prepared from human lymphoblast cells (IM-9). IM-9 cells (2×10^5 cells/mL) were incubated for 3 days (one liter), which was then subjected to centrifugation for 5 minutes at 500×G to obtain cell pellets. […] The residue was washed twice with 30 mL of the above-mentioned buffer, which was then preserved frozen (−80° C.) as a specimen of the receptor.\nThe specimen was suspended in a reaction buffer (50 mM Tri-HCl buffer (pH 7.4), 0.02% bovine serum albumin, 1 mM phenylmethylsulfonyl fluoride, 2 μg/mL chymostatin, 40 μg/mL bacitracin and 3 mM manganese chloride) to have protein in the concentration of 0.5 mg/mL of protein and 100 μL portion of the suspension was used in the reaction. […] The amount of nonspecific binding was determined by adding substance P at a final concentration of 2×10^−6 M.\nAfter the reaction, using a cell harvester (290 PHD, Cambridge Technology, Inc., U.S.A.), filtration was carried out through a glass filter (GF/B, Whatman, U.S.A.), which was immersed in 0.1% polyethyleneimine for 24 hours and dried. After washing three times with 250 μL of 50 mM Tris-HCl buffer (pH 7.4) containing 0.02% bovine serum albumin, the radioactivity remaining on the filter was determined with a gamma counter."}}, "note": "Where a name gives a salt, the structure may show the parent alone.", "data": [{"smiles": "Cl.O=C1CC(C(=O)N2CC[C@H](NCc3cc(-c4ccc(Cl)cc4)ccc3OC(F)(F)F)[C@H](c3ccccc3)C2)CC(=O)N1", "values": [{"measurement": "melting point", "result": 153, "unit": "°C"}]}, {"smiles": "CC1(C)OC(=O)N(CC(=O)N2CC[C@H](NCc3cc(-c4ccc(C#N)cc4)ccc3OC(F)(F)F)[C@H](c3ccccc3)C2)C1=O", "note": "(as salt: hydrochloride) (hydrate or solvate) [Example 137, 3′-[({(3R,4S)-1-[(5,5-dimethyl-2,4-dioxo-1,3-oxazolidin-3-yl)acetyl]-3-phenylpiperidin-4-yl}amino)methyl]-4′-(trifluoromethoxy)biphenyl-4-carbonitrile]", "values": [{"measurement": "melting point", "result": "197 to 199", "unit": "°C"}]}, {"smiles": "O=C1CC(C(=O)N2CC[C@H](NCc3cc(-c4ccc(Cl)cc4F)ccc3OC(F)(F)F)[C@H](c3ccccc3)C2)CC(=O)N1", "note": "(as salt: hydrochloride) [Example 132, 4-{[(3R,4S)-4-({[4′-chloro-2′-fluoro-4-(trifluoromethoxy)biphenyl-3-yl]methyl}amino)-3-phenylpiperidin-1-yl]carbonyl}piperidine-2,6-dione]", "values": [{"measurement": "melting point", "result": "162 to 164", "unit": "°C"}]}, {"smiles": "N#Cc1ccc(-c2ccc(OC(F)(F)F)c(CN[C@H]3CCN(C(=O)CO)C[C@H]3c3ccccc3)c2)c(F)c1", "note": "[Example 100, 2-fluoro-3′-({[(3R,4S)-1-glycoloyl-3-phenylpiperidin-4-yl]amino}methyl)-4′-(trifluoromethoxy)biphenyl-4-carbonitrile]", "values": [{"measurement": "IC50", "setting": "substance P receptors", "result": 15, "unit": "pM"}, {"measurement": "melting point", "result": "132 to 134", "unit": "°C"}]}, {"smiles": "N#Cc1ccc(-c2ccc(OC(F)(F)F)c(CN[C@H]3CCN(C(=O)C(N)=O)C[C@H]3c3ccccc3)c2)c(F)c1", "note": "[Example 104, 2-[(3R,4S)-4-({[4′-cyano-2′-fluoro-4-(trifluoromethoxy)biphenyl-3-yl]methyl}amino)-3-phenylpiperidin-1-yl]-2-oxoacetamide]", "values": [{"measurement": "IC50", "setting": "substance P receptors", "result": 19, "unit": "pM"}, {"measurement": "melting point", "result": "142 to 144", "unit": "°C"}]}, {"smiles": "COc1ccc(-c2ccc(C#N)c(F)c2)cc1CN[C@H]1CCN(C(=O)CNC(C)=O)C[C@H]1c1ccccc1", "note": "[Example 21, N-[2-((3R,4S)-4-{[(4′-cyano-3′-fluoro-4-methoxybiphenyl-3-yl)methyl]amino}-3-phenylpiperidin-1-yl)-2-oxoethyl]acetamide]", "values": [{"measurement": "IC50", "setting": "substance P receptors", "result": 19, "unit": "pM"}]}, {"smiles": "CC1(C)OC(=O)N(CC(=O)N2CC[C@H](NCc3cc(-c4ccc(C#N)cc4)ccc3OC(F)(F)F)[C@H](c3ccccc3)C2)C1=O", "note": "[Example 137, 3′-[({(3R,4S)-1-[(5,5-dimethyl-2,4-dioxo-1,3-oxazolidin-3-yl)acetyl]-3-phenylpiperidin-4-yl}amino)methyl]-4′-(trifluoromethoxy)biphenyl-4-carbonitrile]", "values": [{"measurement": "IC50", "setting": "substance P receptors", "result": 42, "unit": "pM"}]}, {"smiles": "CC1(C)OC(=O)N(CC(=O)N2CC[C@H](NCc3cc(-c4ccc(C#N)cc4F)ccc3OC(F)(F)F)[C@H](c3ccccc3)C2)C1=O", "note": "(as salt: hydrochloride) (hydrate or solvate) [Example 97, 3′-[({(3R,4S)-1-[(5,5-dimethyl-2,4-dioxo-1,3-oxazolidin-3-yl)acetyl]-3-phenylpiperidin-4-yl}amino)methyl]-2-fluoro-4′-(trifluoromethoxy)biphenyl-4-carbonitrile]", "values": [{"measurement": "melting point", "result": "198 to 200", "unit": "°C"}]}, {"smiles": "COc1ccc(-c2ccc(C#N)cc2)cc1CN[C@H]1CCN(C(=O)CNC(C)=O)C[C@H]1c1ccccc1", "note": "[Example 10, N-[2-((3R,4S)-4-{[(4′-cyano-4-methoxybiphenyl-3-yl)methyl]amino}-3-phenylpiperidin-1-yl)-2-oxoethyl]acetamide]", "values": [{"measurement": "IC50", "setting": "substance P receptors", "result": 19, "unit": "pM"}]}, {"smiles": "COc1ccc(-c2ccc(Cl)cc2)cc1CN[C@H]1CCN(C(=O)CNC(C)=O)C[C@H]1c1ccccc1", "note": "[Example 15, N-[2-((3R,4S)-4-{[(4′-chloro-4-methoxybiphenyl-3-yl)methyl]amino}-3-phenylpiperidin-1-yl)-2-oxoethyl]acetamide]", "values": [{"measurement": "IC50", "setting": "substance P receptors", "result": 20, "unit": "pM"}]}, {"smiles": "O=C1CC(C(=O)N2CC[C@H](NCc3cc(-c4ccc(Cl)cc4F)ccc3OC(F)(F)F)[C@H](c3ccccc3)C2)CC(=O)N1", "note": "[Example 132, 4-{[(3R,4S)-4-({[4′-chloro-2′-fluoro-4-(trifluoromethoxy)biphenyl-3-yl]methyl}amino)-3-phenylpiperidin-1-yl]carbonyl}piperidine-2,6-dione]", "values": [{"measurement": "IC50", "setting": "substance P receptors", "result": 140, "unit": "pM"}]}]}
